Measurements published in article PMC8876959, “Comparative Evaluation of Radiochemical and Biological Properties of ^131I- and [^99mTc]Tc(CO)3-Labeled RGD Analogues Planned to Interact with the αvβ3 Integrin Expressed in Glioblastoma” (Pharmaceuticals, 2022).
“And” between values parts separate entries of the source, which are not always exact repeats. Equal entries are not always repeated.

Legend:
[1] = tested on: C6 tumorigenic cells; experiment: Binding and internalization in C6 tumorigenic cells; assay type: cell-based, rat; details: 37 °C; for Bound fraction: 2 × 10^6 cells, 10 nmol radiopeptide
Method: The C6 cells were incubated at 37 °C in a humidified atmosphere containing 5% CO2 and maintained in culture using Dulbecco’s Modified Eagle Medium (DMEM)—F12 (Gibco; Gaithersburg, MD, USA) supplemented with 10% fetal bovine serum (Sigma-Aldrich; Darmstadt, Germany) and 1% glutamine (Sigma-Aldrich; Darmstadt, Germany). Cells were grown to 75% confluence and then harvested by trypsinization (0.04% trypsin/EDTA). After centrifugation (151× g for 5 min), the cells were resuspended in DMEM—F12 to a final concentration of […] for the development of the glioblastoma animal model.
(§1) An aliquot containing 2 × 10^6 C6 cells in supplemented DMEM-F12 culture medium (450 µL) was added to a vial and incubated with 10 nmol of the radiolabeled peptide at 37 °C with gentle agitation. The studies were evaluated at 1, 4 and 24 h (n = 7 for each time point). Then, the vials were centrifuged (604× g for 5 min). The radioactivities of the pellet and supernatant were separately evaluated using an automatic Wizard 3 2480 gamma counter (Perkin Elmer; Norwalk, CT, USA). The percentage of the bound fraction was calculated by Equation (1). (1) % bound fraction=Pellet radioactivity (cpm)/Pellet radioactivity (cpm)+supernatant radioactivity (cpm)×100
(§2) In the sequence, a second radioactivity determination was performed. For that, pellets were resuspended using 0.5 mL of acid buffer (0.2 M acetic acid in 0.5 M NaCl solution; pH 2.8) and maintained at room temperature for 5 min to remove the radiolabeled molecule attached to the cell membrane surface. Then, the vials were centrifuged (1677× g for 5 min). The pellet and supernatant were separated and their radioactivities were measured using the above-mentioned automatic gamma counter. The percentage of the internalized fraction of radiopeptides was estimated based on the ratio between the activity contained in the precipitate and the supernatant and calculated by Equation (2):(2) % internalized fraction=Pellet radioactivity (cpm)/Pellet radioactivity (cpm)+supernatant radioactivity (cpm)×100

[2] = tested on: tumor-bearing glioblastoma brain homogenate (model); experiment: Binding and internalization in brain homogenate of glioblastoma model rats; parameters: species or system rat; details: 37 °C, n = 7
Method: as §1, §2
Adult male Sprague Dawley rats (280–320 g) were maintained under controlled environmental conditions (12 h light-dark cycle; constant temperature 21 ± 2 °C), with free access to water and food. Tumorigenic glioblastoma cells were implanted in the right frontal cortex, following specific coordinates (referred to bregma): anteroposterior = 1.0 mm; lateral = 3.0 mm; depth = 5.0 mm. An aliquot of culture medium (10 µL) containing 1 × 10^6 C6 cells in suspension was injected slowly (1 µL/min) using a Hamilton syringe positioned on a stereotaxic surgery frame. In the control group, only the culture medium, without cells, was injected. An interval of 20 days after cell inoculation was allowed for tumor development.
Brain homogenates were prepared at the concentration of ~10 mg of wet tissue in 1000 µL of PBS (pH 7.4). Normal brain tissue (control) and tumor-bearing brain tissue (model) were used. A 25 µL aliquot (1.2 MBq/nmol) of each radiopeptide was added to 200 µL of freshly prepared homogenates (n = 7). The homogenates containing the radiolabeled peptides were incubated at 37 °C for 1, 4 and 24 h. Binding and internalization fractions were determined as described in Section 3.11.

[3] = tested on: C6 cells; experiment: In vitro specific binding to C6 cells (block with excess non-labeled peptide); assay type: cell-based, rat; details: 4 h
Method: The specific binding of the radiopeptides to C6 cells was evaluated in 12-well adherent plates, containing 2.0 × 10^5 cells per well. For the specific binding study (unblock), supplemented DMEM-F12 medium containing 1.66 nmol of the [^131I]I-GRGDYV or 8.88 nmol of the [^99mTc]Tc(CO) 3-GRGDHV was added in the wells. On the other hand, for the non-specific binding study (block), an excess of 1000× of the respective non-radiolabeled peptide (competitor) was added to the supplemented DMEM-F12 medium containing the radiopeptide in each well. In both cases, the plates were incubated at 37 °C in a humidified atmosphere containing 5% CO2 for 4 h and then, the supernatant was removed. Each well was washed with PBS, which was joined to the respective supernatant. Finally, the cells were removed by trypsinization and the contents were placed in microtubes. Each well was washed again with PBS, which was joined to the respective trypsinized cells. Cells and supernatants were counted in the above-mentioned automatic gamma counter.

[4] = tested on: serum proteins; experiment: Serum protein binding (TCA precipitation); assay type: in vitro ADME; details: 25 µL radiopeptide in 175 µL serum, 37 °C, 1 h; 10% TCA precipitation; gamma counter; n = 6
Method: Radiopeptides (25 μL) were added to 175 µL of serum (n = 6) and incubated at 37 °C for 1 h. After, 1 mL of 10% trichloroacetic acid (TCA) was added for the precipitation of proteins. The mixture was vortexed for 1 min and centrifuged at 1677× g for 10 min. This process was repeated three times. Both the supernatant’s and pellet’s radioactivity were measured in an automatic Wizard 3 2480 gamma counter (Perkin Elmer; Norwalk, CT, USA).

[5] = glioblastoma model brain homogenate, 24 h

**Q.** How did the Bound fraction ([1]; 1 h, n = 7) turn out when [^99mTc]Tc(CO)3-GRGDHV was run?
**A.** ~ 22%

**Q.** What about the Bound fraction ([1]; 4 h, mean ± SD, n = 7) of the same substance?
**A.** 23.47% ± 1.78

**Q.** What about the Bound fraction ([1]; 24 h, n = 7) of the same substance?
**A.** ~ 8%

**Q.** And the Internalized fraction ([1]; 1 h, acid buffer wash pH 2.8, n = 7)?
**A.** ~ 34%

**Q.** And the Internalized fraction ([1]; 4 h, acid buffer wash pH 2.8, mean ± SD, n = 7)?
**A.** 54.24% ± 3.99

**Q.** And the Internalized fraction ([1]; 24 h, acid buffer wash pH 2.8, n = 7)?
**A.** ~ 74%

**Q.** And the Bound fraction ([2]; glioblastoma model brain homogenate (~10 mg/1000 µL PBS pH 7.4), 1 h)?
**A.** ~ 50%

**Q.** And the Internalized fraction ([2]; glioblastoma model brain homogenate, 1 h)?
**A.** ~ 79%

**Q.** And the Bound fraction [2, 5]?
**A.** ~ 78%

**Q.** And the Internalized fraction [2, 5]?
**A.** ~ 98%

**Q.** And the “Binding to C6 cells (unblock)” value ([3]; 2.0 × 10^5 cells per well, 37 °C, 1.66 nmol [131I]I-GRGDYV or 8.88 nmol [99mTc]Tc(CO)3-GRGDHV, mean ± SD)?
**A.** 0.61 ± 0.07%

**Q.** What about the “Binding to C6 cells with excess of non-radiolabeled peptide (block)” value ([3]; 1000× excess of the respective non-radiolabeled peptide, 37 °C, mean ± SD) of the same substance?
**A.** 0.33 ± 0.04%

**Q.** And the “Reduction of binding by excess of non-radiolabeled peptide” value ([3]; block versus unblock, C6 cells)?
**A.** ~ 46%

**Q.** And the “Serum protein binding (SPB)” value [4]?
**A.** ~50% and 49.97 ± 0.01%
